How the values were obtained:
Assay in all cases: relative viability (nuclei count vs DMSO), 5 days (fraction); higher = more cells survive
[1] = compound: CN1C=C(C2=CC=CC=C21)/C=C\3/C4=C(C=CC=N4)NC3=O + COc1cc2c(Oc3ccc(NC(=O)C4(C(=O)Nc5ccc(F)cc5)CC4)cc3F)ccnc2cc1OCCCN1CCOCC1 [Foretinib] (partner 0.25 µM)
In short: (§1)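 Relative viability was taken as the ratio of nuclei in treated wells to nuclei in vehicle wells. Lung cancer cell lines in 1536-well plates received compounds by pin tool one day after seeding, either one drug alone or a fixed anchor-drug dose plus five library-drug doses (not always all listed) in √10 steps. Nuclei were counted on 4× images after 5 days of treatment, and values are medians of duplicate plates.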

[2] = compound: CN1C=C(C2=CC=CC=C21)/C=C\3/C4=C(C=CC=N4)NC3=O + CC(=O)c1c(C)c2cnc(Nc3ccc(N4CCNCC4)cn3)nc2n(C2CCCC2)c1=O [Palbociclib] (partner 0.5 µM)
In short: as §1

Trametinib + Dasatinib = compound: CC(=O)Nc1cccc(-n2c(=O)n(C3CC3)c(=O)c3c(Nc4ccc(I)cc4F)n(C)c(=O)c(C)c32)c1 [Trametinib] + Cc1nc(Nc2ncc(C(=O)Nc3c(C)cccc3Cl)s2)cc(N2CCN(CCO)CC2)n1 [Dasatinib] (partner 0.075 µM)
In short: as §1

[3] = compound: CN1C=C(C2=CC=CC=C21)/C=C\3/C4=C(C=CC=N4)NC3=O + CC1(C)CCC(c2ccc(Cl)cc2)=C(CN2CCN(c3ccc(C(=O)NS(=O)(=O)c4ccc(N[C@H](CCN5CCOCC5)CSc5ccccc5)c(S(=O)(=O)C(F)(F)F)c4)cc3)CC2)C1 [Navitoclax] (partner 0.5 µM)
In short: as §1

Row | Cell Line | relative viability ([1]; first compound 0.02 µM) | relative viability ([1]; first compound 0.06325 µM) | relative viability ([1]; first compound 0.6325 µM) | relative viability ([1]; first compound 2 µM) | relative viability ([2]; first compound 0.02 µM) | relative viability ([2]; first compound 0.06325 µM) | relative viability ([2]; first compound 0.6325 µM) | relative viability ([2]; first compound 2 µM) | relative viability (Trametinib + Dasatinib; first compound 0.0025 µM) | relative viability (Trametinib + Dasatinib; first compound 0.007906 µM) | relative viability (Trametinib + Dasatinib; first compound 0.025 µM) | relative viability (Trametinib + Dasatinib; first compound 0.07906 µM) | relative viability (Trametinib + Dasatinib; first compound 0.25 µM) | relative viability ([3]; first compound 0.02 µM) | relative viability ([3]; first compound 0.06325 µM) | relative viability ([3]; first compound 0.2 µM) | relative viability ([3]; first compound 0.6325 µM) | relative viability ([3]; first compound 2 µM) | relative viability ([1]; first compound 0.2 µM) | relative viability ([2]; first compound 0.2 µM)
1 | NCI-H2023 | 0.841 | 0.837 | 0.924 | 0.746 | 0.412 | 0.369 | 0.45 | 0.372 | 0.484 | 0.485 | 0.515 | 0.34 | 0.221 | 1.06 | 0.935 | 0.961 | 1.03 | 0.996 |  | 
2 | Calu-6 | 0.818 | 0.893 | 0.779 | 0.834 |  |  |  |  |  |  |  |  |  | 0.804 | 0.772 | 0.746 | 0.908 | 0.859 | 0.727 | 
3 | SW 900 | 0.961 | 0.702 | 0.866 | 0.723 | 0.428 |  | 0.542 | 0.563 | 0.559 | 0.652 | 0.46 | 0.57 | 0.238 |  |  |  |  |  |  | 
4 | HOP-62 | 1.11 | 1.17 | 1.13 | 1.12 | 0.438 | 0.415 | 0.449 | 0.483 | 0.681 | 0.43 | 0.249 | 0.206 | 0.212 | 1.25 | 1.14 | 0.703 | 0.99 | 1 | 1.22 | 
5 | H3255 | 1.26 | 0.954 | 0.742 | 0.899 | 0.33 | 0.327 | 0.317 | 0.296 | 0.512 | 0.334 | 0.288 | 0.238 | 0.346 | 0.547 | 0.484 | 0.422 | 0.439 | 0.425 | 0.72 | 0.309
6 | NCI-H1734 | 0.928 | 0.875 | 0.904 | 1.03 | 0.316 | 0.372 | 0.334 | 0.345 | 0.54 | 0.592 | 0.399 | 0.56 | 0.387 | 0.817 | 0.82 |  | 0.798 | 0.83 |  | 
7 | SK-MES-1 | 0.795 | 0.668 | 0.875 | 0.865 | 0.243 | 0.325 | 0.321 | 0.264 | 0.324 | 0.313 | 0.208 | 0.171 | 0.156 | 0.902 | 1.04 | 1.26 | 1.11 | 1.15 | 0.96 | 0.316
8 | NCI-H1792 |  |  |  |  | 0.624 | 0.679 |  | 0.559 | 0.694 | 0.515 | 0.652 | 0.549 | 0.396 | 0.343 | 0.642 | 0.529 |  | 0.496 |  | 0.656
9 | EKVX | 0.877 | 0.842 | 0.662 | 0.773 | 0.323 |  | 0.273 | 0.732 | 0.398 | 0.492 | 0.31 | 0.226 | 0.221 | 0.909 | 0.774 | 0.811 | 0.7 | 0.772 | 0.806 | 
10 | EPLC-272H | 0.564 | 0.677 |  | 0.663 | 0.331 | 0.271 | 0.336 | 0.274 | 0.275 | 0.231 | 0.215 | 0.138 | 0.12 | 1.37 | 0.988 |  | 1.27 | 0.944 | 0.603 | 
11 | LK-2 |  |  | 1.23 | 1.41 | 0.232 | 0.421 | 0.576 | 0.678 | 0.251 | 0.272 | 0.239 | 0.212 | 0.156 |  | 0.683 | 0.638 | 0.726 | 1.04 |  | 0.447
12 | CAL-12T | 1.08 | 1.03 | 1.08 | 1.03 | 0.501 | 0.411 | 0.419 | 0.499 | 0.232 | 0.219 | 0.268 | 0.165 | 0.104 | 1.22 | 1.11 | 1.22 | 1.19 | 1.14 | 1.08 | 0.411
13 | NCI-H322M | 0.905 | 0.993 | 0.946 | 1.12 | 0.451 | 0.458 | 0.498 | 0.5 | 0.239 | 0.239 | 0.247 | 0.266 | 0.284 | 1.31 | 1.3 | 1.12 | 1.12 | 1.29 | 0.887 | 0.487
14 | NCI-H1650 | 1.21 | 1.05 | 1.26 | 1.22 | 0.299 | 0.274 | 0.299 | 0.353 | 0.337 | 0.368 | 0.344 | 0.298 | 0.16 | 0.901 | 0.984 | 0.927 | 0.918 | 1.19 | 0.98 | 0.267
15 | NCI-H2342 | 1.15 | 0.927 | 0.914 | 1.13 | 0.552 | 0.557 | 0.537 | 0.485 | 0.298 | 0.28 |  | 0.3 | 0.303 |  |  |  |  |  | 1.05 | 0.519
16 | SW 1573 | 0.995 | 0.925 | 0.975 | 0.822 | 0.319 | 0.391 | 0.424 | 0.485 | 0.513 | 0.389 | 0.371 | 0.323 | 0.266 | 1.18 | 0.861 | 1.02 | 1.12 | 0.893 | 0.894 | 0.426
17 | NCI-H2405 | 1.04 | 1.03 | 1.01 | 1.05 | 0.576 | 0.526 | 0.535 | 0.541 | 0.209 | 0.187 | 0.19 | 0.173 | 0.183 | 0.891 | 0.803 | 0.65 | 1.1 | 0.732 | 0.896 | 0.524
18 | LCLC-103H | 0.735 | 0.685 | 0.802 | 0.858 | 0.493 | 0.411 | 0.471 | 0.472 | 0.498 | 0.512 | 0.429 | 0.402 | 0.446 |  |  |  |  |  | 0.813 | 0.479
